From patent US20220265770A1, “TREATING NEURODEGENERATIVE DISEASES WITH PROGRANULIN” (NEURODYN, INC., priority 2008, published 2022)
Entries after “also recorded” stand apart in the source; their conditions may differ.

Experiments:
[1] = tested on: caudal primary motor neurons of zebrafish embryos; assay: Zebrafish ventral primary motor axon/nerve growth (znp1 immunostaining); type: in vivo
From the text: During the first day of zebrafish development, neuromuscular connections are restricted to the three primary motoneurons (CaP, MiP and RoP) per spinal cord hemisegment where they innervate three myotome areas that ultimately develop into body wall muscle. During the first the 24 hpf CaP axons project to establish the common pathway. This is the developmental period encompassed in FIGS. 27 and 28.
Development of ventral primary neurons were examined in whole mount embryos at 26-28 hpf and visualized by immunostaining with znp1 monoclonal antibody that labels primary motor neurons.
There is reduced incidence (P<0.001) of truncated neurons (FIG. 27, Panel D, white arrows) together with increased incidence (P<0.001) of early and late branching (FIG. 27, Panel E, white arrowheads) as shown in Table 2. Data sets were accumulated from 50 embryos (WT, progranulin MO, progranulin MO plus mRNA).
Fish husbandry: Wild type zebrafish were purchased from Aquatica Tropicals (Florida) and maintained on a 14 h/10 h light/dark cycle at 28.5° C. in a laboratory aquarium (Allentown Caging Equipment Co. Inc., Allentown, N.J.). Fish were fed twice daily. In the late afternoon of the day before eggs are required, fish were transferred to a net positioned towards the top of a holding tank and covered. In the morning, after the light cycle begins and spawning has stopped, the eggs that have fallen through the net were collected from the bottom of the tank. Embryos to be used for developmental studies were collected and staged by hours post fertilization (hpf). […]
Microinjection of Pgrn mRNA: For Pgrn mRNA over-expression and rescue experiments the vector was generated as follows: The full-length progranulin-a sequence was purchased from RZPD (Berlin, Germany) as clone UCDMp574E2318Q2 and subcloned into pcDNA3.1-V5/His vector (Invitrogen, Carlsbad, Calif.) using a forward primer that overlapped with the starter AUG a reverse primer that read through the termination codon. […]

NSC-34 cells [2] = conditions: literature (Tabata et al.); cited from earlier work
male CD-1 mice [3] = assay: Open field motor activity (grid crossings) following synthetic BSSG exposure; type: in vivo, mouse; conditions: same mice as Example 4; week 28 vs controls, p<0.05
Description: The same mice exposed to BSSG in Example 4 were used to analyze open field motor activity. *=p<0.05 (Student T-test).
For the open field motor activity analysis, mice were placed in a round open field (2 m diameter) for 5 minutes and movements were recorded using a video camera to measure emotionality and exploration (spontaneous motor activity) (Karl et al., 2003). Videos were replayed on a TV and a circular grid was overlaid on the TV screen. Grid crossings were recorded.

spinal motor neurons = assay: Spinal motor neuron counts and ChAT in BSSG challenged mice treated with PGRN lentivirus; type: in vivo, mouse
male CD-1 mice [4] = assay: Leg extension reflex following synthetic BSSG exposure; type: in vivo, mouse; conditions: 100 mg/day synthetic BSSG for 15 weeks, then normal chow; weekly, week 0-32, vs control p<0.0001
Description: Three month old male CD-1 mice were fed 100 mg/day of synthetic BSSG for 15 weeks, then permitted to age with a diet of normal lab chow. Leg extension was measured weekly from the initiation of the experiment. Testing was performed as described in Wilson et al., 2004 and Wilson et al., 2005.
The leg extension reflex test was used as a measure of motor neuron dysfunction (Barneoud and Curet, 1999). This test was altered to discriminate more subtle behaviors, creating a scale from 0 to 4. […] This scale allows the measure of progression in a continuous manner over time. A score of 0-4 is assigned based on the response shown by the mouse as follows:
4: Complete extension of both legs (normal).
3: Two legs extended with some tremors and/or punching in a leg.
2: One leg extended, 1 retracted, or tremors in both legs.
1: One leg retracted, tremors in other leg.

progranulin expression = assay: In situ hybridization of progranulin expression in cervical spinal cord of BSSG fed mice; type: in vivo, mouse
Description: Adult male CD-1 mice were fed a diet of either normal chow or chow containing […] per day of synthetic BSSG. Following 10 weeks of feeding with BSSG-containing chow and a further month with normal lab chow, mice were killed and ISH using progranulin specific antisense riboprobes was performed on frozen sections of cervical spinal cord cut in trans-section. High levels of progranulin expression were detected in the anterior horn cells of the control mouse as shown by the section in FIG. 9A. […] A negative control section is shown in FIG. 9C, incubated with a sense probe.
Adult male CD-1 mice were fed a diet of chow containing 10, 100, or 1000 μg per day of synthetic BSSG. Following 10 weeks of feeding with BSSG-containing chow and a further month with normal lab chow, mice were killed and ISH using progranulin specific riboprobes was performed on frozen sections of cervical spinal cord cut in trans-section. […] Additionally, there is a more pronounced loss of progranulin expression per cell as BSSG exposure increases.

[5] = tested on: motor neurons in lumbar cord; assay: Motor neuron quantification (Nissl, ChAT, CTIP2, caspase-3) after 10 weeks BSSG; type: in vivo, mouse; conditions: varying doses of synthetic BSSG for 10 weeks, aged 1 or 5 months on normal chow
From the text: Six month old male CD-1 mice were fed varying doses of synthetic BSSG for 10 weeks, then allowed to age for 1 month with a diet of normal chow prior to sacrifice (see FIG. 3, panels A-C). Motor neurons were quantified in lumbar cord, by Nissl staining and choline acetyltransferase (ChAT) immunohistochemistry (IHC), as shown in FIG. 3A. Motor neurons were quantified in motor cortex where neurons were detected by IHC against CTIP2 (highly expressed in corticospinal motor neurons), as shown in FIG. 3C. Motor neurons in the lumbar spinal cord of animals permitted to age for 5 months following the cessation of BSSG were quantified after Nissl staining, as shown in FIG. 3D (* P<0.01, ANOVA).
Lumbar spinal cord sections were stained with cresyl violet and ventral horn motor neurons were counted under a 40× objective lens. All motor neurons in the field of view were included in the results. Multiple sections (N=6) from each mouse were used. Counts were conducted on spinal cord sections that were at least 150 μm apart (in the rostral-caudal plane) ensuring that no motor neuron was counted twice. In addition, counts included all apparent motor neurons including motor neurons that may have appeared atrophic or damaged.
Active caspase-3 (Promega, Madison, Wis.) labeling was performed as follows. […] Sections were visualized using fluorescence microscopy. […]

NSC-34 cells [6] = assay: NSC-34 proliferation/survival with granulin epithelin modules (CyQUANT NF); type: cell-based; conditions: 50 or 100 ng/ml, 13 days, RPMI without serum
Description: NSC 34 cells (5000 cell/well) were plated in 96 well plates using 100 ul of DMEM/10% FBS. The following day, the medium was removed and replaced with 100 ul of RPMI (without serum) containing: 0, 50 or 100 ng/ml of grn D or grn F. Cultures were incubated for 13 days following which cell proliferation/survival was determined using the CyQUANT® NF (kit #C35006) assay.
The CyQUANT® NF assay is based on measurement of cellular DNA content via fluorescent dye binding. The extent of proliferation/survival is determined by comparing fluorescence intensity for NSC-34 cells treated with GEMs (50 and 100 ng) relative to untreated controls (Ong).
As per the manufacturers instructions, the protocol included aspiration of growth medium, replacement with 100 ul of dye binding solution per well, incubation for 30 minutes following which the fluorescence intensity of each sample was measured using a fluorescence microplate reader with excitation at ˜485 nm and emission detection at ˜530 nm (FIG. 22). The immortalized motor neuron cell line (NSC-34) responded to incubation with grn F and grn D with either proliferation/survival (grn F) or no effect (grn D) similar to the response of extra neuronal cells incubated in the presence of these GEM's (described in: Tolkatchev D. et al., Protein Sci. 17:711-724, 2008).

[7] = Table 2, average number of motor axon/nerve defects per affected side, n=50, 10 ng PgrnA MO, 100 pg mRNA, 26-28 hpf

With “PGRN-MO2: morpholino to 5′UTR of zebrafish pgrn-a, 5′-GAGCAGGTGGATTTGTGAACAGCGG-3′ (all phosphorodiamidate morpholino (PMO))” the Branching [1, 7] was 1.0 ± 0.19*c, the Truncation [1, 7] was 3.02 ± 0.31***a and the “primary motor neuron phenotype” value ([1]; whole mount embryos 26-28 hpf, znp1) was “range of morphant phenotypes”.

In the case of `CC[C@H](CC[C@@H](C)[C@H]1CC[C@H]2[C@@H]3CC=C4C[C@@H](O[C@@H]5O[C@H](CO)[C@@H](O)[C@H](O)[C@H]5O)CC[C@]4(C)[C@H]3CC[C@]12C)C(C)C` [BSSG, β-sitosterol β-D-glucoside], the “cytotoxicity in NSC-34 cell line” value (NSC-34 cells [2]) is listed as “cause cytotoxicity”, the “open field motor activity (grid crossing)” value (male CD-1 mice [3]) is listed as “significantly decreased movement” and the “numbers of ChAT positive motor neurons” value (spinal motor neurons; control (saline treated) BSSG exposed mice) is listed as “appeared to be reduced”. For the same molecule, the “choline acetyl transferase (ChAT) activity in anterior horn cells” value (spinal motor neurons; saline treated BSSG exposed mice relative to all other treatment groups) was “decreased activity”, the “leg extension reflex (score 0-4)” value (male CD-1 mice [4]) was “decline in leg extension reflex” and the “neuropathology and loss of progranulin expressing cells in cervical spinal cord” value (progranulin expression; 10, 100 or 1000 μg per day BSSG, 10 weeks plus 1 month normal chow) was “more pronounced neuropathology”. The “progranulin expression in anterior horn cells of cervical spinal cord (ISH)” value (progranulin expression; 1000 μs per day synthetic BSSG 10 weeks plus 1 month normal chow) was “decreased in intensity and was observed in fewer cells of the anterior horn” and the “motor neurons in lumbar spinal cord” value [5] was “Progressive loss of motor neurons; also recorded: dose dependent loss of motor neuron health”.

B1: grn D: granulin epithelin module, SEQ ID NO: 10, His-tagged (protein)
chain: AMDIGCDQHTSCPVGQTCCPSLGGSWACCQLPHAVCCEDRQHCCPAGYTCNVKARSCEKLAAALEHHHHHH
modifications: His tag
In the case of B1, the “cell proliferation/survival (CyQUANT NF fluorescence)” value (NSC-34 cells [6]) is reported as “no effect”.
